Laboratory results: ChEMBL document CHEMBL4138182, “Aminomethylation of heliomycin: Preparation and anticancer characterization of the first series of semi-synthetic derivatives” (Eur J Med Chem, 2018)
Activity calls are given as the source filed them. No cut-off for these calls is given here.

Tested on: T-24
Assay: Induction of apoptosis n human T24 cells assessed as downregulation of Bcl-2 levels at 0.5 to 1 uM after 18 hrs by Western blot method
Format: functional, cell-based
Conditions: not given
For Cc1cc(O)c2c3c4c(cc(O)c13)C(C)(C)C(=O)c1c(O)c(CN3CCC(N)CC3)c(O)c(c1-4)C2=O, the Activity was “Active”.

Tested on: Calf thymus DNA
Assay: Binding affinity to calf thymus double stranded DNA by Benesi-Hildebrand plot analysis
Format: nucleic-acid assay, Bos taurus
Conditions: not given
Compound Cc1cc(O)c2c3c4c(cc(O)c13)C(C)(C)C(=O)c1c(O)c(CN3CCC(N)CC3)c(O)c(c1-4)C2=O has a Kd of 8100 nM.

Same assay, conditions: Bos taurus
In the case of Cc1cc(O)c2c3c4c(cc(O)c13)C(C)(C)C(=O)c1c(O)c(CN3CCC(N)CC3)c(O)c(c1-4)C2=O, the Kb is reported as 1.2 ×10⁵ /M.

Tested on: T-24
Assay: Induction of apoptosis n human T24 cells assessed as caspase-3 cleavage at 0.5 to 1 uM after 18 hrs by Western blot method
Format: functional, cell-based
Conditions: not given
For Cc1cc(O)c2c3c4c(cc(O)c13)C(C)(C)C(=O)c1c(O)c(CN3CCC(N)CC3)c(O)c(c1-4)C2=O, the Activity was “Active”.

Molecular target: T1, DNA topoisomerase 1 (Homo sapiens) (UniProt P11387)
T1 sequence (whole entry): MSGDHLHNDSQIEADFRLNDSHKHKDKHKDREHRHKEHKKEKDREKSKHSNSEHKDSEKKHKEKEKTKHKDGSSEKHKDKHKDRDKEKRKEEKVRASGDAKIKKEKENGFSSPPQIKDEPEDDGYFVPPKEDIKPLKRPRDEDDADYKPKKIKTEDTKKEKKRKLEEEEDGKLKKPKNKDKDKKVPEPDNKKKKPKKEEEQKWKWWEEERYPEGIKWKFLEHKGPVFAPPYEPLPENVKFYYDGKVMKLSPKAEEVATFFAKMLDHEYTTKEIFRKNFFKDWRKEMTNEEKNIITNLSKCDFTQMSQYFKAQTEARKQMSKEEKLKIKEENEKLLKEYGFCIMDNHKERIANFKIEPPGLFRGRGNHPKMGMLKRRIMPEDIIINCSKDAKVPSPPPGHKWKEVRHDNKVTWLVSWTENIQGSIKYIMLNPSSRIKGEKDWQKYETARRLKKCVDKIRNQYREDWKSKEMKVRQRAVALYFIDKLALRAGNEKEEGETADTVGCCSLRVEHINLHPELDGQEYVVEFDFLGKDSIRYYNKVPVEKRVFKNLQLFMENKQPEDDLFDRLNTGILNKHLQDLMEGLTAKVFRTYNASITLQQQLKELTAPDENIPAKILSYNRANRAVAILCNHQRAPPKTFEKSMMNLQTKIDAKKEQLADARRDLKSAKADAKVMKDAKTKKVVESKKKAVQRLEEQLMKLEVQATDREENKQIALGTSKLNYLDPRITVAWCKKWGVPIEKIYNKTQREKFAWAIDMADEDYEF
Assay: Inhibition of human DNA topoisomerase 1 assessed as decrease in relaxation of pBR322 at <= 20 uM after 30 to 40 mins by agarose gel electrophoresis
Conditions: not given
With Cc1cc(O)c2c3c4c(cc(O)c13)C(C)(C)C(=O)c1c(O)c(CN3CCC(N)CC3)c(O)c(c1-4)C2=O the “Topoisomerase 1 inhibition (active/inactive)” value was “Active”.

Tested on: Calf thymus DNA
Assay: Binding affinity to calf thymus double stranded DNA at 10 uM by fluorescence spectrophotometer
Format: nucleic-acid assay
Conditions: Bos taurus
With Cc1cc(O)c2c3c4c(cc(O)c13)C(C)(C)C(=O)c1c(O)c(CN3CCC(N)CC3)c(O)c(c1-4)C2=O the Activity was “Active”.

Tested on: not listed separately
Assay: Antiproliferative activity against human K562/4 cells after 72 hrs by MTT assay
Format: functional, cell-based
Conditions: K562/4, 72 h
With Cc1cc(O)c2c3c4c(cc(O)c13)C(C)(C)C(=O)c1c(O)c(CN3CCC(N)CC3)c(O)c(c1-4)C2=O the IC50 was 4100 nM.

Tested on: HeLa
Assay: Antiproliferative activity against human HeLa cells after 72 hrs by MTT assay
Format: functional, cell-based
Conditions: not given
In the case of Cc1cc(O)c2c3c4c(cc(O)c13)C(C)(C)C(=O)c1c(O)c(CN3CCC(N)CC3)c(O)c(c1-4)C2=O, the IC50 is reported as 2600 nM.

Tested on: K562
Assay: Antiproliferative activity against human K562 cells after 72 hrs by MTT assay
Format: functional, cell-based
Conditions: K562, 72 h
Cc1cc(O)c2c3c4c(cc(O)c13)C(C)(C)C(=O)c1c(O)c(CN3CCC(N)CC3)c(O)c(c1-4)C2=O showed an IC50 of 600 nM.

Tested on: HCT-116
Assay: Antiproliferative activity against human HCT116 cells after 72 hrs by MTT assay
Format: functional, cell-based
Conditions: HCT-116, 72 h
Compound Cc1cc(O)c2c3c4c(cc(O)c13)C(C)(C)C(=O)c1c(O)c(CN3CCC(N)CC3)c(O)c(c1-4)C2=O has an IC50 of 1200 nM.

Tested on: L1210
Assay: Antiproliferative activity against mouse L1210 cells after 72 hrs by MTT assay
Format: functional, cell-based
Conditions: L1210, 72 h
Cc1cc(O)c2c3c4c(cc(O)c13)C(C)(C)C(=O)c1c(O)c(CN3CCC(N)CC3)c(O)c(c1-4)C2=O gave an IC50 of 800 nM.

Tested on: CCRF-CEM
Assay: Antiproliferative activity against human CEM cells after 72 hrs by MTT assay
Format: functional, cell-based
Conditions: not given
Compound Cc1cc(O)c2c3c4c(cc(O)c13)C(C)(C)C(=O)c1c(O)c(CN3CCC(N)CC3)c(O)c(c1-4)C2=O has an IC50 of 2300 nM.

Tested on: T-24
Assay: Growth inhibition of human T24 cells after 72 hrs by cell impedance method
Format: functional, cell-based
Conditions: T-24, 72 h
In the case of Cc1cc(O)c2c3c4c(cc(O)c13)C(C)(C)C(=O)c1c(O)c(CN3CCC(N)CC3)c(O)c(c1-4)C2=O, the IC50 is reported as 4400 nM.

Tested on: T-24
Assay: Induction of reactive oxygen species generation in human T24 cells at 1 uM after 30 mins by H2DCFDA dye-based flow cytometric method
Format: functional, cell-based
Conditions: not given
For Cc1cc(O)c2c3c4c(cc(O)c13)C(C)(C)C(=O)c1c(O)c(CN3CCC(N)CC3)c(O)c(c1-4)C2=O, the Activity was “Active”.

Tested on: T-24
Assay: Induction of apoptosis n human T24 cells assessed as upregulation of Bak levels at 0.5 to 1 uM after 18 hrs by Western blot method
Format: functional, cell-based
Conditions: not given
With Cc1cc(O)c2c3c4c(cc(O)c13)C(C)(C)C(=O)c1c(O)c(CN3CCC(N)CC3)c(O)c(c1-4)C2=O the Activity was “Active”.

Tested on: T-24
Assay: Induction of apoptosis n human T24 cells assessed as PARP cleavage at 0.5 to 1 uM after 18 hrs by Western blot method
Format: functional, cell-based
Conditions: not given
In the case of Cc1cc(O)c2c3c4c(cc(O)c13)C(C)(C)C(=O)c1c(O)c(CN3CCC(N)CC3)c(O)c(c1-4)C2=O, the Activity is reported as “Active”.

Tested on: T-24
Assay: Induction of apoptosis n human T24 cells assessed as upregulation of p53 levels at 0.5 to 1 uM after 18 hrs by Western blot method
Format: functional, cell-based
Conditions: not given
For Cc1cc(O)c2c3c4c(cc(O)c13)C(C)(C)C(=O)c1c(O)c(CN3CCC(N)CC3)c(O)c(c1-4)C2=O, the Activity was “Active”.

Tested on: T-24
Assay: Induction of apoptosis n human T24 cells at 1 uM after 24 hrs by annexin V-FITC/propidium iodide staining-based flow cytometric method
Format: functional, cell-based
Conditions: not given
For Cc1cc(O)c2c3c4c(cc(O)c13)C(C)(C)C(=O)c1c(O)c(CN3CCC(N)CC3)c(O)c(c1-4)C2=O, the Activity was “Active”.

Tested on: HCT-116
Assay: Antiproliferative activity against p53 deficient human HCT116 cells after 72 hrs by MTT assay
Format: functional, cell-based
Conditions: HCT-116, 72 h
In the case of Cc1cc(O)c2c3c4c(cc(O)c13)C(C)(C)C(=O)c1c(O)c(CN3CCC(N)CC3)c(O)c(c1-4)C2=O, the IC50 is reported as 700 nM.

Molecular target: T1, DNA topoisomerase 1 (Homo sapiens)
Assay: Inhibition of human DNA topoisomerase 1 assessed as decrease in relaxation of pBR322 at 5 to 20 uM after 30 to 40 mins by agarose gel electrophoresis
Conditions: not given
In the case of Cc1cc(O)c2c3c4c(cc(O)c13)C(C)(C)C(=O)c1c(O)c(CN3CCC(N)CC3)c(O)c(c1-4)C2=O, the inhibition is reported as “Active”.
